Laboratory results as given in US8796289B2 (AbbVie Inc., priority 2011, dated 2014).
pKi: −log10 of the molar value.

Molecular target: GST-tagged-Wee1 kinase (Homo sapiens, UniProt P30291)
Experiment: Wee1 time-resolved fluorescence equilibrium binding assay (displacement of Oregon Green-labeled ATP-competitive kinase probe)
Method: Wee1 kinase was assayed using a time-resolved fluorescence equilibrium binding assay monitoring displacement of a rapidly reversible Oregon Green-labeled ATP-competitive kinase probe (N-(2-(2-(2-(4-(4-(5-chloro-4-(2-(1-hydroxycyclobutyl)thiazol-5-yl)-1H-pyrrolo[2,3-b]pyridin-2-yl)phenyl)piperazin-1-yl)ethoxy)ethoxy)ethyl)-2′,7′-difluoro-3′,6′-dihydroxy-3-oxo-3H-spiro[isobenzofuran-1,9′-xanthene]-5-carboxamide) by competitive Wee1 inhibitors.

GST-tagged-Wee1 kinase, sequence (P30291 whole entry): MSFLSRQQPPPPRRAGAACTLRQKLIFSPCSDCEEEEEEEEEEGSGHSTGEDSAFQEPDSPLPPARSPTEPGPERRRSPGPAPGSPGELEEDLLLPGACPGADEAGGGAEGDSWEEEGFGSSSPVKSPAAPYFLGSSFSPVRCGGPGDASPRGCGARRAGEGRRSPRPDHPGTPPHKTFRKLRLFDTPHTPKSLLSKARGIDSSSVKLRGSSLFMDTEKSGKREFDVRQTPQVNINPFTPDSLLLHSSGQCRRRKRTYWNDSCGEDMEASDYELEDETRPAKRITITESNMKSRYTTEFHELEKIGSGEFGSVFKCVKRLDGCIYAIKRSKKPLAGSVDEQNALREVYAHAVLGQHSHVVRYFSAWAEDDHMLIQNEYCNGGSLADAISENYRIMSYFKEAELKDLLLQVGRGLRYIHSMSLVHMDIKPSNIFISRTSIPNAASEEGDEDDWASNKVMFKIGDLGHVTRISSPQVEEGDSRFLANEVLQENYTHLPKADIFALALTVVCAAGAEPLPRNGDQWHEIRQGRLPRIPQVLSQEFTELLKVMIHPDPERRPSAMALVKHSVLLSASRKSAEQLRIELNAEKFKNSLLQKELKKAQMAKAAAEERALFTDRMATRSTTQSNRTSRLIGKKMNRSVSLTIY

| Compound | pKi |
| --- | --- |
| CC1(C)CNCc2cc(Nc3ncc4c(=O)n(CCO)nc(-c5ccccn5)c4n3)ccc21 [Example 283, 2-[(4,4-dimethyl-1,2,3,4-tetrahydroisoquinolin-7-yl)amino]-6-(2-hydroxyethyl)-8-(pyridin-2-yl)pyrimido[4,5-d]pyridazin-5(6H)-one] | 7.52 |
| O=c1c2cnc(Nc3ccc(N4CCNCC4)cc3)nc2c(-c2ccccn2)nn1-c1c(Cl)cccc1Cl [Example 284, 6-(2,6-dichlorophenyl)-2-{[4-(piperazin-1-yl)phenyl]amino}-8-(pyridin-2-yl)pyrimido[4,5-d]pyridazin-5(6H)-one] | 9.44 |
| O=c1c2cnc(Nc3ccc(N4CCNCC4)cc3)nc2c(-c2ccccn2)nn1-c1ccccn1 [Example 285, 2-{[4-(piperazin-1-yl)phenyl]amino}-6,8-di(pyridin-2-yl)pyrimido[4,5-d]pyridazin-5(6H)-one] | 8.08 |
| O=c1c2cnc(Nc3ccc(N4CCNCC4)cc3)nc2c(-c2ccccn2)nn1-c1cccc2ccccc12 [Example 286, 6-(naphthalen-1-yl)-2-{[4-(piperazin-1-yl)phenyl]amino}-8-(pyridin-2-yl)pyrimido[4,5-d]pyridazin-5(6H)-one] | 8.03 |
| CN1Cc2cc(Nc3ncc4c(=O)n(-c5ccccn5)nc(-c5ccccn5)c4n3)ccc2C(C)(C)C1 [Example 287] | 7.96 |
| CC(O)Cn1nc(-c2ccccn2)c2nc(Nc3ccc4c(c3)CN(C)CC4(C)C)ncc2c1=O (stereo not shown) [Example 288, 6-(2-hydroxypropyl)-8-(pyridin-2-yl)-2-[(2,4,4-trimethyl-1,2,3,4-tetrahydroisoquinolin-7-yl)amino]pyrimido[4,5-d]pyridazin-5(6H)-one] | 6.76 |
| CC(O)Cn1nc(-c2ccccn2)c2nc(Nc3ccc(N4CCNCC4)cc3)ncc2c1=O (stereo not shown) [Example 289, 6-(2-hydroxypropyl)-2-{[4-(piperazin-1-yl)phenyl]amino}-8-(pyridin-2-yl)pyrimido[4,5-d]pyridazin-5(6H)-one] | 7.09 |
| CN1CCN(c2ccc(Nc3ncc4c(=O)n(-c5c(Cl)cccc5Cl)nc(-c5ccc(C(=O)O)cc5)c4n3)cc2)CC1 [Example 290, 4-[6-(2,6-dichlorophenyl)-2-{[4-(4-methylpiperazin-1-yl)phenyl]amino}-5-oxo-5,6-dihydropyrimido[4,5-d]pyridazin-8-yl]benzoic acid] | 9.48 |
| CN1CCN(c2ccc(Nc3ncc4c(=O)n(-c5c(Cl)cccc5Cl)nc(-c5ccc(C(=O)N(C)C)cc5)c4n3)cc2)CC1 [Example 291, 4-[6-(2,6-dichlorophenyl)-2-{[4-(4-methylpiperazin-1-yl)phenyl]amino}-5-oxo-5,6-dihydropyrimido[4,5-d]pyridazin-8-yl]-N,N-dimethylbenzamide] | 9.42 |
| CN1CCN(c2ccc(Nc3ncc4c(=O)n(-c5c(Cl)cccc5Cl)nc(-c5ccc(C(=O)NC6CCC6)cc5)c4n3)cc2)CC1 [Example 292, N-cyclobutyl-4-[6-(2,6-dichlorophenyl)-2-{[4-(4-methylpiperazin-1-yl)phenyl]amino}-5-oxo-5,6-dihydropyrimido[4,5-d]pyridazin-8-yl]benzamide] | 9.32 |
| CNC(=O)c1ccc(-c2nn(-c3c(Cl)cccc3Cl)c(=O)c3cnc(Nc4ccc(N5CCN(C)CC5)cc4)nc23)cc1 [Example 293, 4-[6-(2,6-dichlorophenyl)-2-{[4-(4-methylpiperazin-1-yl)phenyl]amino}-5-oxo-5,6-dihydropyrimido[4,5-d]pyridazin-8-yl]-N-methylbenzamide] | 9.60 |
| CC1(C)CNCc2cc(Nc3ncc4c(=O)n(C5CCCCC5)nc(-c5ccccn5)c4n3)ccc21 [Example 294, 6-cyclohexyl-2-[(4,4-dimethyl-1,2,3,4-tetrahydroisoquinolin-7-yl)amino]-8-(pyridin-2-yl)pyrimido[4,5-d]pyridazin-5(6H)-one] | 6.20 |
| CC(O)Cn1nc(-c2ccccn2)c2nc(Nc3ccc4c(c3)CNCC4(C)C)ncc2c1=O (stereo not shown) [Example 295, 2-[(4,4-dimethyl-1,2,3,4-tetrahydroisoquinolin-7-yl)amino]-6-(2-hydroxypropyl)-8-(pyridin-2-yl)pyrimido[4,5-d]pyridazin-5(6H)-one] | 6.30 |
| CN1CCN(c2ccc(Nc3ncc4c(=O)n(-c5c(F)cccc5Cl)nc(-c5ccncc5)c4n3)cc2)CC1 [Example 296, 6-(2-chloro-6-fluorophenyl)-2-{[4-(4-methylpiperazin-1-yl)phenyl]amino}-8-(pyridin-4-yl)pyrimido[4,5-d]pyridazin-5(6H)-one] | 9.57 |
| O=c1c2cnc(Nc3ccc(N4CCNCC4)cc3)nc2c(-c2ccncc2)nn1-c1c(F)cccc1Cl [Example 297, 6-(2-chloro-6-fluorophenyl)-2-{[4-(piperazin-1-yl)phenyl]amino}-8-(pyridin-4-yl)pyrimido[4,5-d]pyridazin-5(6H)-one] | 9.72 |
| CN1CCN(c2ccc(Nc3ncc4c(=O)n(-c5c(F)cccc5Cl)nc(-c5ccncn5)c4n3)cc2)CC1 [Example 298, 6-(2-chloro-6-fluorophenyl)-2-{[4-(4-methylpiperazin-1-yl)phenyl]amino}-8-(pyrimidin-4-yl)pyrimido[4,5-d]pyridazin-5(6H)-one] | 8.74 |

| Compound | pKi |
| --- | --- |
| CCOc1cccc(-c2nn(-c3c(F)cccc3Cl)c(=O)c3cnc(Nc4ccc(N5CCN(C)CC5)cc4)nc23)n1 [Example 299, 6-(2-chloro-6-fluorophenyl)-8-(6-ethoxypyridin-2-yl)-2-{[4-(4-methylpiperazin-1-yl)phenyl]amino}pyrimido[4,5-d]pyridazin-5(6H)-one] | 9.00 |
| Cc1nn(-c2c(Cl)cccc2Cl)c(=O)c2cnc(Nc3ccc4c(c3)CNCC43CC3)nc12 [Example 300, 6-(2,6-dichlorophenyl)-2-(2′,3′-dihydro-1′H-spiro[cyclopropane-1,4′-isoquinolin]-7′-ylamino)-8-methylpyrimido[4,5-d]pyridazin-5(6H)-one] | 9.92 |
| O=c1c2cnc(Nc3ccc(N4CCN(C5CCC5)CC4)cc3)nc2c(-c2ccncc2)nn1-c1c(Cl)cccc1Cl [Example 301, 2-{[4-(4-cyclobutylpiperazin-1-yl)phenyl]amino}-6-(2,6-dichlorophenyl)-8-(pyridin-4-yl)pyrimido[4,5-d]pyridazin-5(6H)-one] | 8.57 |
| CN1CCN(c2ccc(Nc3ncc4c(=O)n(-c5c(F)cccc5Cl)nc(-c5cnn(C)c5)c4n3)cc2)CC1 [Example 302, 6-(2-chloro-6-fluorophenyl)-2-{[4-(4-methylpiperazin-1-yl)phenyl]amino}-8-(1-methyl-1H-pyrazol-4-yl)pyrimido[4,5-d]pyridazin-5(6H)-one] | 9.21 |
| CN1CCN(c2ccc(Nc3ncc4c(=O)n(-c5c(F)cccc5Cl)nc(-c5cccc(O)n5)c4n3)cc2)CC1 [Example 303, 6-(2-chloro-6-fluorophenyl)-8-(6-hydroxypyridin-2-yl)-2-{[4-(4-methylpiperazin-1-yl)phenyl]amino}pyrimido[4,5-d]pyridazin-5(6H)-one] | 8.55 |
| CN1Cc2cc(Nc3ncc4c(=O)n(C5CCNCC5)nc(-c5ccccn5)c4n3)ccc2C(C)(C)C1 [Example 304, 6-(piperidin-4-yl)-8-(pyridin-2-yl)-2-[(2,4,4-trimethyl-1,2,3,4-tetrahydroisoquinolin-7-yl)amino]pyrimido[4,5-d]pyridazin-5(6H)-one] | 6.21 |
| CC1(C)CNCc2cc(Nc3ncc4c(=O)n(C5CCNCC5)nc(-c5ccccn5)c4n3)ccc21 [Example 305, 2-[(4,4-dimethyl-1,2,3,4-tetrahydroisoquinolin-7-yl)amino]-6-(piperidin-4-yl)-8-(pyridin-2-yl)pyrimido[4,5-d]pyridazin-5(6H)-one] | 6.08 |
| CC1(C)CNCc2cc(Nc3ncc4c(=O)n(-c5cccc6ccccc56)nc(-c5ccccn5)c4n3)ccc21 [Example 306, 2-[(4,4-dimethyl-1,2,3,4-tetrahydroisoquinolin-7-yl)amino]-6-(naphthalen-1-yl)-8-(pyridin-2-yl)pyrimido[4,5-d]pyridazin-5(6H)-one] | 7.30 |
| CN1CCN(c2ccc(Nc3ncc4c(=O)n(-c5c(Cl)cccc5Cl)nc(-c5cncs5)c4n3)cc2)CC1 [Example 307, 6-(2,6-dichlorophenyl)-2-{[4-(4-methylpiperazin-1-yl)phenyl]amino}-8-(1,3-thiazol-5-yl)pyrimido[4,5-d]pyridazin-5(6H)-one] | 8.85 |
| Cc1nn(-c2c(F)cccc2Cl)c(=O)c2cnc(Nc3ccc4c(c3)CNCC43CC3)nc12 [Example 308] | 9.00 |
| CN1CCN(c2ccc(Nc3ncc4c(=O)n(-c5c(F)cccc5Cl)nc(-c5ccccn5)c4n3)cc2)CC1 [Example 309, 6-(2-chloro-6-fluorophenyl)-2-{[4-(4-methylpiperazin-1-yl)phenyl]amino}-8-(pyridin-2-yl)pyrimido[4,5-d]pyridazin-5(6H)-one] | 6.17 |
| CN1CCN(c2ccc(Nc3ncc4c(=O)n(-c5cnccc5O)nc(-c5ccccn5)c4n3)cc2)CC1 [Example 310, 6-(4-hydroxypyridin-3-yl)-2-{[4-(4-methylpiperazin-1-yl)phenyl]amino}-8-(pyridin-2-yl)pyrimido[4,5-d]pyridazin-5(6H)-one] | 8.44 |
| Cc1nn(-c2c(F)cccc2Cl)c(=O)c2cnc(Nc3ccc4c(c3)CN(C)CC4(C)C)nc12 [Example 311, 6-(2-chloro-6-fluorophenyl)-8-methyl-2-[(2,4,4-trimethyl-1,2,3,4-tetrahydroisoquinolin-7-yl)amino]pyrimido[4,5-d]pyridazin-5(6H)-one] | 9.00 |
| Cc1nn(-c2c(F)cccc2Cl)c(=O)c2cnc(Nc3ccc(N4CCN(C)CC4)cc3)nc12 [Example 312, 6-(2-chloro-6-fluorophenyl)-8-methyl-2-{[4-(4-methylpiperazin-1-yl)phenyl]amino}pyrimido[4,5-d]pyridazin-5(6H)-one] | 8.72 |
| Cc1nn(-c2c(F)cccc2Cl)c(=O)c2cnc(Nc3ccc4c(c3)CN(C)CC43CC3)nc12 [Example 313, 6-(2-chloro-6-fluorophenyl)-8-methyl-2-[(2′-methyl-2′,3′-dihydro-1′H-spiro[cyclopropane-1,4′-isoquinolin]-7′-yl)amino]pyrimido[4,5-d]pyridazin-5(6H)-one] | 8.59 |
